4 molecules from EP1286591B1, “TREATING SMOOTH MUSCLE HYP[…] (R)-OXYBUTYNIN AND (R)- DESETHYLOXYBUTYNIN” (Watson Pharmaceuticals, Inc., priority 2000, dated 2001) can be followed below.

Series [1] is described as follows: Therapeutic effects compared with the racemates and optical antipodes. Particulars: compared to their corresponding racemates and their optical antipodes.
Series [2] can be described thus: Cardiovascular depressing activity (cardiac side effect studies). The conditions noted are these: unwanted side effect of racemic oxybutynin. Type of series: in vivo, guinea pigs. As to the method: Male guinea pigs (450-600 g) are anesthetized with freshly prepared dialurethane sodium. The jugular vein is catheterized for iv administration of test drugs and the trachea is exposed and cannulated. Subdermal electrodes are positioned for Lead II electrocardiogram recording, monitored on a Grass Polygraph recorder, set at a paper speed of 50 mm/sec. The animals are allowed to stabilize for 30 minute after completion of surgery, and three baseline EKG recordings are then made at 10-minute intervals. The animals are then given a dose of the test compound or vehicle as an intravenous infusion over 30 min. EKG recordings are used to determine QT intervals and heart rates. To compensate for variations in heart rates, QTc intervals are calculated from QT- and RR-intervals as known to those skilled in the art. Prolongation of QTc is indicative of a prolonged action potential, caused by an inhibition of the delayed rectifier potassium channel. Prolongation of QTc is the known cause of Torsades de Pointes ventricular fibrillation by drugs such as terodiline, terfenadine and astemizole (now withdrawn from the market).

Series [3] is described as follows: Tolerability in laboratory animals (acute toxicity in mice). Type of series: in vivo. The conditions noted are these: compared with the S(+)-isomer. On the procedure: The experiments are carried out on conscious albino mice that are administered escalating doses of the test compounds intravenously or orally.

Each structure is given as a SMILES string.

For the molecule `CCNCC#CCOC(=O)[C@](O)(c1ccccc1)C1CCCCC1` [R(-)-isomer of desethyloxybutynin, R(-)-4-ethylamino-2-butynyl cyclohexylphenyl-glycolate], the therapeutic effects result in series [1] is reported as “superior therapeutic effects”.

Turning to `CCN(CC)CC#CCOC(=O)[C@@](O)(c1ccccc1)C1CCCCC1` [S(+)-isomer of oxybutynin], the cardiovascular depressing activity entry in series [2] is given as “serious cardiovascular depressing activity”. For the molecule `CCNCC#CCOC(=O)[C@@](O)(c1ccccc1)C1CCCCC1` [S(+)-isomer of desethyloxybutynin], in series [2], the cardiovascular depressing activity entry is “serious cardiovascular depressing activity”. Turning to `CCN(CC)CC#CCOC(=O)[C@](O)(c1ccccc1)C1CCCCC1` [R(-)-isomer of oxybutynin, R(-)-4-diethylamino-2-butynyl_-cyclohexyl-_-hydroxy-benzeneacetate], the “tolerated when given to laboratory animals” value in series [3] is on record as “much better tolerated than the S(+)-isomer”. For the same molecule, the therapeutic effects entry in series [1] is recorded as “superior therapeutic effects”.
